# Experimental data published in patent US4312861A, “Pharmaceutical compositions containing N-alkyl-N-(nuclearly-substituted) benzylamines having vasotonia-regulating activity” (Hoechst Aktiengesellschaft, priority 1974, dated 1982).
# Assays:
# [1] = system: permeability of the capillaries; assay: Histamine rash test (modified Halpern), capillary permeability; assay type: in vivo; settings: 30 minutes before histamine
# Protocol: The test according to Halpern (Presse medicale 65 (1949), page 949) was used in modified form. The suppressive effect of the compounds according to the invention on the permeability of the capillaries was tested. The blue coloration induced by intravenous administration of trypan blue at two intracutaneous histamine injection points per animal, (trypan blue administered 2 minutes before the histamine), was estimated according to the following scale of values:
# indications of blue coloration
# clear blue coloration =4
# stong blue coloration =6
# The preceding evaluation was made from the combined effect at the two injection points.
# The test substances were administered i.p. 30 minutes before the histamine injection.
# [2] = system: isolated guinea-pig heart; assay: Relative coronary blood-flow change in isolated guinea-pig heart (Langendorff)
# Protocol: (4) Relative coronary blood-flow change in an isolated guinea-pig heart.
# The tests were carried out according to the method of Langendorff (Pflugers Archiv. 61 (1895), page 219).
# In Table 5, the change in coronary blood flow after administration of various quantities of the test substance is compared with that after administration of the known compounds heptaminol and Aescin sodium salt.
# [3] = system: perfused rabbit ear; assay: Blood-flow change in perfused isolated rabbit ear, vaso-dilator activity (Ringer-Norfenefrin solution)
# Protocol: (3) Blood-flow change in an isolated rabbit ear
# The tests were carried out according to Krakow-Pissemski (Pflugers Archiv 151 (1913), page 583 and 156 (1914), page 426). In Table 5a the estimated values of the vaso-constrictor activity in Ringer solutions of varying concentrations are given and in Table 5b values for vasodilatory activity in Ringer-Norfenefrin solutions of varying concentrations are given. As a comparison, the values obtained with the known preparation aescin sodium are given.
# [4] = Toxicity in the mouse (Litchfield and Wilcoxon); assay type: in vivo; settings: mouse, in vivo
# Protocol: (§1) (6) Toxicity in the mouse
# (§2) Toxicity was determined according to Litchfield and Wilcoxon (J. Pharmacol. exp. Ther. 97 (1949), page 399) in the mouse. In comparison, the values with the known substance aescin sodium salt were determined. Comparative tests with 0.1% solution, of venous and optical compatibility on the rabbit yielded similar results.
# [5] = system: isolated portal vein; assay: Isolated rat's portal vein (Berti), increase in tonus
# Protocol: (2) Isolated rat's portal vein
# The tests on the rat's portal vein, an organ with its own rhythm, were performed according to the method of Berti et al (Arch. int. Pharmacodyn. 184 (1970), page 328). In Table 4, the increase in tonus at various adrenalin concentrations is given in milligrams. As a comparison, the values for the known substance heptaminol (=6-amino-2-methylheptane-2-ol) are also given.
# [6] = system: carrageenin oedema in the rat paw; assay: Suppression of carrageenin oedema in the rat paw (Siegmund); assay type: in vivo; settings: 3 h p.a.
# Protocol: (7) Suppression of carrageenin oedema in the rat paw
# The inflammation-reducing and anti-oedematous effects on carrageenin and serotonin oedemas in the rat paw were studied according to Siegmund et al (Proc. Soc. exp. Biol. Med. 95 (1957), page 729). The values are given as percentages, based on the values obtained in control tests using a dummy procedure. In this way, the antiphlogistic activity of the substances according to the invention was tested.
# [7] = system: writhing movements in the mouse; assay: Writhing test (Winter); assay type: in vivo
# Source text: The analgesic activity of the compounds according to the invention were studied by the method of Winter et al (Proc. Soc. exp. Biol. Med, 111 (1962), page 544), in which the suppression of writhing movements in the mouse was observed.
# [8] = system: mouse; assay: Hot-plate test (Chen and Beckman); assay type: in vivo; settings: Mus musculus; comparison substance; read-out: Effective dose of 50% (ED 50), hot-plate test
# Protocol: This test was performed on the mouse, according to Chen and Beckman (see Science 113 (1951), page 631). 50 mg/kg of the compound No. 2 (cf. formula sheet) which has been administered per os increase the reaction time of the animals by 70%.
# [9] = system: mouse; assay: Toxicity in the mouse (Litchfield and Wilcoxon); assay type: in vivo
# Protocol: as §1, §2
# [10] = 30 μg (first figure where two are given)
# [11] = 10 μg (first figure where two are given)
# [12] = 100 μg (first figure where two are given)
SMILES,"Histamine rash test, blue coloration score (0 = none, 2 = indications, 4 = clear, 6 = strong) ([1]; 1.0 mg/kg i.p.)","Histamine rash test, blue coloration score (0 = none, 2 = indications, 4 = clear, 6 = strong) ([1]; 3.0 mg/kg i.p.)","Relative change in coronary blood flow [2, 10]","Relative change in blood flow, vaso-dilator activity ([3]; 3 × 10^-5 g/ml)",LD50 ([4]; ip) [mg/kg],"Relative change in coronary blood flow [2, 12]","Relative change in blood flow, vaso-dilator activity ([3]; 10^-5 g/ml)","Relative change in blood flow, vaso-dilator activity ([3]; 10^-6 g/ml)",other results
Cc1cc(C)c(CNC(C)CCCC(C)C)c(C)c1 (centres unmarked) [compound 29],3.3,1.7,+111,+19,50 to 100,,,,
"CC(N)CCCC(C)(C)O (centres unmarked) [Heptaminol, 6-amino-2-methylheptane-2-ol, reference compound]",,,0,,,0,,,"Relative change in coronary blood flow [2, 11]: 0; Effect on coronary vessels of the guinea-pig heart ([2]; in words): no effect on the guinea-pig heart; Increase in tonus, isolated rat's portal vein ([5]; 10^-4 g/ml): +47 milligrams; Increase in tonus, isolated rat's portal vein ([5]; 10^-5 g/ml): +9 milligrams; Increase in tonus, isolated rat's portal vein ([5]; 10^-6 g/ml): +9 milligrams; Effect on vessels of the tonicised rabbit ear ([3]; in words): intensifies the Ringer-Norfenefrin constriction in the rabbit ear; Control test with heptaminol, rabbit ear (footnote ++) ([3]; mark in 10^-4 g/ml line): constriction"
CCCCCC(C)NCc1ccc(F)cc1 (centres unmarked) [compound 7],,,,+34,100 to 250,,,,Suppression of carrageenin oedema in the paw (antiphlogistic activity) ([6]; 25 mg/kg p.o.): 53%; Suppression of carrageenin oedema in the paw (antiphlogistic activity) ([6]; 63 mg/kg p.o.): 71%; Suppression of writhing movements ([7]; 40 mg/kg p.o.): 46%; Suppression of writhing movements ([7]; 63 mg/kg p.o.): 67%; Suppression of writhing movements ([7]; 100 mg/kg p.o.): 77%
"CCCCCC(C)NCc1c(C)cc(C)cc1C (single isomer, unassigned) [compound 3]",2.5,2.5,+19,+38,50 to 100,+30,+105,+43,"Relative change in coronary blood flow [2, 11]: +14; Suppression of carrageenin oedema in the paw (antiphlogistic activity) ([6]; 100 mg/kg p.o.): 11%; Relative change in blood flow, vaso-dilator activity ([3]; 10^-7 g/ml): +3; LD50 ([4]; iv): 10.8 mg/kg"
CCCCC(C)NCc1c(C)cc(C)cc1C (centres unmarked) [compound 25],,1.3,,,50 to 100,,+93,+1,"Histamine rash test, blue coloration score (0 = none, 2 = indications, 4 = clear, 6 = strong) ([1]; 10.0 mg/kg i.p.): 1.4; Relative change in blood flow, vaso-dilator activity ([3]; 3 × 10^-6 g/ml): +39; Relative change in blood flow, vaso-dilator activity ([3]; 10^-4 g/ml): +147; Relative change in blood flow, vaso-dilator activity ([3]; 10^-7 g/ml): +3; Suppression of writhing movements ([7]; 50 mg/kg p.o.): 46%"
"CCCCCC(C)NCc1ccc(Cl)cc1 (single isomer, unassigned) [compound 8]",,,,+66,25 to 100,,,+3,Suppression of writhing movements ([7]; 50 mg/kg p.o.): 15%
CCC(C)CC(C)NCc1c(C)cc(C)cc1C (centres unmarked) [compound 28],,2.9,+118,+47,50 to 100,+226,,,"Increase in tonus, isolated rat's portal vein ([5]; 10^-4 g/ml): +84 milligrams; Increase in tonus, isolated rat's portal vein ([5]; 10^-5 g/ml): +57 milligrams; Increase in tonus, isolated rat's portal vein ([5]; 10^-6 g/ml): +21 milligrams"
Cc1cc(C)c(CNC(C)CCCC(C)(C)O)c(C)c1 (centres unmarked) [compound 31],,,,,,,+41,+12,"Histamine rash test, blue coloration score (0 = none, 2 = indications, 4 = clear, 6 = strong) ([1]; 10.0 mg/kg i.p.): 2.6; Suppression of carrageenin oedema in the paw (antiphlogistic activity) ([6]; 200 mg/kg p.o.): 26%; Relative change in blood flow, vaso-dilator activity ([3]; 10^-4 g/ml): +87; LD50 ([4]; iv): 50 to 100 mg/kg"
"Cc1c(N(C)C)c(=O)n(-c2ccccc2)n1C [aminophenazone, reference compound]",,,,,,,,,ED50 [8]: 84 mg/kg
"CCCCCC(C)NCc1c(C)cc(C)cc1C (single isomer, unassigned) [compound 4]",3.1,1.7,,+31,,+125,+104,+40,"Suppression of carrageenin oedema in the paw (antiphlogistic activity) ([6]; 100 mg/kg p.o.): 14%; Relative change in blood flow, vaso-dilator activity ([3]; 10^-7 g/ml): +4; Toxicity in the mouse ([9]; i.p.): 50 to 100 mg/kg; Toxicity in the mouse ([9]; i.v.): 12,4 mg/kg"
CCCCCCOCCCNCc1c(C)cc(C)cc1C [compound 22],2.6,1.3,+109,0,25 to 50,,,,"Increase in tonus, isolated rat's portal vein ([5]; 10^-4 g/ml): +271 milligrams; Increase in tonus, isolated rat's portal vein ([5]; 10^-5 g/ml): +225 milligrams; Increase in tonus, isolated rat's portal vein ([5]; 10^-6 g/ml): +65 milligrams; Increase in vasotonus compared with heptaminol ([5]; in words): distinctly stronger increase in vasotonus than the comparison substance heptaminol"
CCCCCC(C)NCc1ccc([N+](=O)[O-])cc1 (centres unmarked) [compound 13],,,,,100 to 250,,,,Suppression of carrageenin oedema in the paw (antiphlogistic activity) ([6]; 63 mg/kg p.o.): 17%; Suppression of carrageenin oedema in the paw (antiphlogistic activity) ([6]; 100 mg/kg p.o.): 59%
